Laboratory results as given in patent publication US8058243B2, “Method for treating a brain cancer with ifenprodil” (HSC Research and Development Limited Partnership, priority 2006, dated 2011).
Structures can show the parent of a compound that is named as a salt. Where two headings read alike, the source gives them in different places.

System: murine neural precursor cells (neurosphere cultures)
Assay: HTS of LOPAC library against secondary neurosphere cultures, MTT proliferation assay at 3 μM, day 7 (z score, P value)
Type: cell-based, mouse
[1] = primary LOPAC screen, 3 μM, MTT, neurosphere proliferation
[2] = yes/no: significantly inhibited neurosphere proliferation in the primary screen
[3] = LOPAC library screen, 3 μM, MTT, secondary neurosphere cultures, day 7
[4] = LOPAC screen, neurosphere MTT proliferation, 3 μM, day 7
[5] = yes/no: significantly inhibited neurosphere proliferation (P<0.01) in primary screen
[6] = LOPAC primary screen, neurosphere MTT proliferation, 3 μM, day 7
[7] = yes = significantly inhibited neurosphere proliferation (P<0.01) in the primary screen
[8] = yes/no: significantly inhibited neurosphere proliferation (P<0.01) in the primary screen
[9] = yes/no: significantly inhibited neurosphere proliferation in primary screen
[10] = LOPAC library screen, 3 μM, MTT, neurosphere cultures
[11] = LOPAC library screen at 3 μM, secondary neurosphere cultures, MTT

CC(C)NP(=O)(NC(C)C)OP(=O)(NC(C)C)NC(C)C [Tetraisopropyl pyrophosphoramide]
Z Score: −1.114
Z score [1]: −1.114
Activity [2]: no

S-(−)-Carbidopa
Z Score [3]: −2.314
Z score [4]: −2.314
Activity [5]: no

CC[N+](CC)(CC)CC.[Cl-] [Tetraethylammonium chloride]
Activity: no
Z Score: 0.123
Z score: 0.123

COc1ccccc1N1CCN(CCN(C(=O)c2ccc(I)cc2)c2ccccn2)CC1.Cl [p-MPPI hydrochloride]
Z Score: 0.2606
Z score [6]: 0.261
Activity [7]: no

CC[C@]1(O)C[C@H]2CN(CCc3c([nH]c4ccccc34)[C@@](C(=O)OC)(c3cc4c(cc3OC)N(C=O)[C@H]3[C@@](O)(C(=O)OC)[C@H](OC(C)=O)[C@]5(CC)C=CCN6CC[C@]43[C@@H]65)C2)C1 [Vincristine sulfate]
Z Score [3]: −10.79
Z score [6]: −10.792
Activity [8]: yes

Nc1nc(N)c2nc(-c3ccccc3)c(N)nc2n1 [Triamterene]
Z Score [3]: −4.642
Z score [6]: −4.642
Activity [7]: yes

Cn1cnc([N+](=O)[O-])c1Sc1ncnc2nc[nH]c12 [Azathioprine]
Z Score [3]: −7.913
Z score [6]: −7.913
Activity [7]: yes

Cl.NCCc1ccc(O)c(O)c1 [Dopamine hydrochloride]
Activity: no
Z Score: 1.352
Z score: 1.352

Nc1ccc2c3c(cccc13)C(=O)NC2=O [4-Amino-1,8-naphthalimide]
Z Score (LOPAC library screen at 3 μM, MTT, secondary neurosphere cultures, screened in singlets): 1.875
Z score [6]: 1.875
Activity [9]: no

O=c1ccn([C@@H]2O[C@H](COP(=O)([O-])OP(=O)([O-])[O-])[C@@H](O)[C@H]2O)c(=O)[nH]1.[Na+].[Na+].[Na+] [Uridine 5′-diphosphate sodium]
Z Score (168 h, 3 µM): 0.7074
Z score (168 h, 3 µM): 0.707
Activity [2]: no

Br.CCCN1CCC[C@@H]2c3ccc(O)cc3CC[C@@H]21 [cis-(B1)-8-OH-PBZI hydrobromide]
Z Score: −2.297

NCC(CP(=O)(O)O)c1ccc(Cl)cc1 (stereo not drawn) [Phaclofen]
Z Score: 0.9701
Z score [6]: 0.970
Activity [9]: no

Cc1c(C)c2c(c(C)c1O)CCC(C)(CN1CCN(c3cc(N4CCCC4)nc(N4CCCC4)n3)CC1)O2.Cl.Cl (stereo not drawn) [U-83836 dihydrochloride]
Z Score: 0.954
Z score [6]: 0.954
Activity [8]: no

CC(C)(C)NCC(O)c1ccc(O)c(CO)c1 (stereo not drawn) [Salbutamol]
Z Score [3]: −1.678
Z score [6]: −1.678
Activity [9]: no

CCn1cc(C(=O)O)c(=O)c2cc3c(cc21)OCO3 [Oxolinic acid]
Z Score [10]: 0.9179
Z score [6]: 0.918
Activity [9]: no

O=Nc1ccc2oc(=O)ccc2c1 [6-Nitroso-1,2-beazopyrone]
Z Score: 0.01132

N=C(N)NCCCCN.O=S(=O)(O)O [Agmatine sulfate]
Z Score [10]: 0.5881
Z score [6]: 0.588
Activity [7]: no

NCCCCCCCCCCN [1,10-Diaminodecane]
Z Score (168 h, 3 µM): 0.1393
Z score (168 h, 3 µM): 0.139
Activity [5]: no

COc1ccc(CCCOC(Cn2ccnc2)c2ccc(OC)cc2)cc1 (stereo not drawn) [SKF 96365]
Z Score: −4.497
Z score [6]: −4.497
Activity [7]: yes

CC1CN(S(=O)(=O)c2cccc3cnccc23)CCN1.Cl.Cl (stereo not drawn) [1-(5-Isoquinolinylsulfonyl)-3-methylpiperazine dihydrochloride]
Z Score (168 h, 3 µM): 0.4769
Z score (168 h, 3 µM): 0.477
Activity [5]: no

NCCCNCCSP(=O)(O)O [Amifostine]
Z Score (168 h, 3 µM): 0.3592
Z score (168 h, 3 µM): 0.359
Activity [7]: no

CC(N)c1cccc(Cl)c1Cl.Cl (stereo not drawn)
Z Score: −2.251

Terbutaline hemisulfate
Z Score [10]: 0.6409
Z score [1]: 0.641
Activity [2]: no

COc1cccc(NC(=O)/C=C/c2ccc(Cl)cc2)c1 [SB-366791]
Z Score: −1.419
Z score [6]: −1.419
Activity [9]: no

C=CCc1ccccc1OCC(O)CNC(C)C (stereo not drawn) [Alprenolol hydrochloride]
Z Score [3]: −2.143
Z score [1]: −2.143
Activity [2]: no

[Cl-].[Li+] [Lithium Chloride]
Z Score: −0.9113
Z score [6]: −0.911
Activity [5]: no

CC(N)(C(=O)O)c1ccc(C(=O)O)cc1 (stereo not drawn) [(B1)-alpha-Methyl-4-carboxyphenylglycine]
Z Score: 0.727

CCSC(N)=Nc1ccc(C(F)(F)F)cc1.Cl [TFPI hydrochloride]
Z Score [11]: −1.156
Z score [6]: −1.156
Activity [9]: no

CN(C)c1nc(N)c(C(=O)NC(=N)N)nc1Cl.Cl [5-(N,N-Dimethyl)amiloride hydrochloride]
Z Score: 2.396
Z score [1]: 2.396
Activity [2]: no

CCN(CC)CC#CCOC(=O)C(O)(c1ccccc1)C1CCCCC1 (stereo not drawn) [Oxybutynin Chloride]
Activity: no
Z Score [10]: 0.708
Z score [6]: 0.708

CCCn1c(C)c(C(=O)c2cccc3ccccc23)c2ccccc21 [JWH-015]
Z Score: 0.6223
Z score [6]: 0.622
Activity [5]: no

CC[C@@H]1/C=C/C=C/C[C@H](C)[C@H](O)[C@](C)(O)C(=O)[C@H](C)[C@@H](O)[C@H](C)C(=O)[C@H](C)[C@@H](O)[C@H](C)/C=C/C(=O)O[C@H]2[C@@H](C)[C@@H](CC1)O[C@@]1(CC[C@@H](C)[C@@H](C[C@H](C)O)O1)[C@@H]2C [Oligomycin A]
Z Score [3]: −9.731
Z score [6]: −9.731
Activity [7]: yes

CCOC(=O)C1=C[C@]2(CC)CCCN3CCc4c(n1c1ccccc41)[C@@H]32 [Vinpocetine]
Z Score [10]: 0.4329
Z score [1]: 0.433
Activity [2]: no

OC[C@H]1O[C@@H](n2cnc3c(NC4CCCC4)ncnc32)[C@H](O)[C@@H]1O [N6-Cyclopentyladenosine]
Z Score (168 h, 3 µM): −0.7839
Z score (168 h, 3 µM): −0.784
Activity [5]: no

Oc1ccccc1O [Pyrocatechol]
Z Score: −2.053
Z score [4]: −2.053
Activity [5]: no

O=c1[nH]c2ccccc2n1C1CCN(CCCC(c2ccc(F)cc2)c2ccc(F)cc2)CC1 [Pimozide]
Z Score [11]: −0.2323
Z score [6]: −0.232

CC(C)(C)NCC(O)c1ccccc1Cl (stereo not drawn) [Tulobuterol hydrochloride]
Z Score [3]: −1.767
Z score [6]: −1.767
Activity [9]: no

CC(=O)NCCc1ccc(O)c(O)c1.O [N-Acetyldopamine monohydrate]
Z Score: 0.4667
Z score [1]: 0.467
Activity [2]: no

CC(=O)[C@@]1(O)CC[C@H]2[C@@H]3CCC4=CC(=O)CC[C@]4(C)[C@H]3CC[C@@]21C [17alpha-hydroxyprogesterone]
Z Score: −0.5783
Z score [6]: −0.578
Activity [5]: no

C1COC(NC(C2CC2)C2CC2)=N1 [Rilmenidine hemifumarate]
Z Score [10]: 0.5264
Z score [6]: 0.526
Activity [9]: no

CCn1cc(C(=O)O)c(=O)c2cc(F)c(N3CCNC(C)C3)c(F)c21 (stereo not drawn) [Lomefloxacin hydrochloride]
Activity: no
Z Score [10]: 0.1374
Z score [6]: 0.137
